Counter-ions that a name gives are not always drawn. Like-named read-outs stand apart in the source and are kept apart here.
Experiments:
[1] = test system: NCI-H292 lung cancer cells; experiment: FDA drug screening, complete media vs cholesterol-free media with simvastatin (TABLE 2); type: cell-based, human
[2] = test system: NCI-H292 lung cancer cells; experiment: FDA drug screening, complete media vs cholesterol-free media without statin (TABLE 1); type: cell-based, human
[3] = NCI-H292 cells, cholesterol-free media with simvastatin 0.04 μM, FDA drug library screen (TABLE 2)
[4] = NCI-H292 cells, complete media, FDA drug library screen (TABLE 2)
[5] = complete media minus cholesterol-free media + simvastatin (0.04 μM), […]
[6] = Complete minus Cholesterol-free, […]
[7] = NCI-H292 cells, cholesterol-free media without statin, FDA drug library screen
[8] = NCI-H292 cells, complete media, FDA drug library screen
[9] = complete media minus cholesterol-free media + simvastatin, […]
[10] = NCI-H292 cells, FDA drug library screen, cholesterol-free media with simvastatin 0.04 μM
[11] = NCI-H292 cells, FDA drug library screen, complete media
[12] = complete media vs cholesterol-free media + simvastatin (0.04 μM), >0 enhanced anti-cancer activity, about 0 neutral, <0 antagonist
[13] = complete vs cholesterol-free media, >0 enhanced anti-cancer activity, about 0 neutral, <0 antagonist
[14] = complete media minus cholesterol-free media + simvastatin, >0 enhanced anti-cancer activity, about 0 neutral, <0 antagonist
[15] = NCI-H292 cells, cholesterol-free media without statin
[16] = complete vs cholesterol-free media, greater than 0 enhanced anti-cancer activity, about 0 neutral, below 0 antagonists
[17] = NCI-H292 cells, cholesterol-free media with simvastatin 0.04 μM, cell growth value in FDA drug screen
[18] = NCI-H292 cells, complete media, cell growth value in FDA drug screen
[19] = Complete minus Cholesterol-free, >0 enhanced anti-cancer activity, about 0 neutral, <0 antagonist
[20] = NCI-H292 cells, FDA library drug in cholesterol-free media with simvastatin 0.04 μM
[21] = NCI-H292 cells, FDA library drug in complete media
[22] = Complete minus Cholesterol-free, greater than 0 enhanced anti-cancer activity, about 0 neutral, below 0 antagonists
[23] = NCI-H292 cells in cholesterol-free media without statin
[24] = NCI-H292 cells in complete media
[25] = NCI-H292 cells, drug in cholesterol-free media with simvastatin 0.04 μM
[26] = NCI-H292 cells, drug in complete media
[27] = complete vs cholesterol-free media, […]
[28] = complete media minus cholesterol-free media + simvastatin (0.04 μM), >0 enhanced anti-cancer activity, about 0 neutral, <0 antagonist
[29] = Complete minus Cholesterol-free, greater than 0 enhanced anti-cancer activity, about 0 neutral, below 0 antagonist
[30] = NCI-H292 cells, FDA drug library screen, cholesterol-free media without statin
[31] = complete media vs cholesterol-free media + simvastatin (0.04 μM), […]

COc1cc([C@@H]2c3cc4c(cc3[C@H](O)[C@H]3COC(=O)[C@H]23)OCO4)cc(OC)c1OC [Podofilox]
Cholesterol-free media + simvastatin (0.04 μM) [1, 3]: 0.1667 | Complete Media [1, 4]: 0.1215 | Difference [1, 5]: −0.05 | Difference [2, 6]: −0.01 | Cholesterol-free [2, 7]: 0.05355 | Complete [2, 8]: 0.04847

CCCCCCCCCCCCCCCC[n+]1ccccc1.[Cl-] [Cetylpyridinium (chloride)]
Cholesterol-free media + simvastatin (0.04 μM) ([1]; NCI-H292 cells, cholesterol-free media with simvastatin 0.04 μM, […]): 0.218 | Complete Media ([1]; NCI-H292 cells, complete media, […]): 0.2381 | Difference [1, 9]: 0.02 | Difference [2, 6]: −0.03 | Cholesterol-free [2, 7]: 0.09243 | Complete [2, 8]: 0.05797

Cc1c(C)c2c(c(C)c1O)CCC(C)(COc1ccc(CC3SC(=O)NC3=O)cc1)O2 (stereo not shown) [Troglitazone]
Cholesterol-free media + simvastatin (0.04 μM) [1, 10]: 0.9725 | Complete Media [1, 11]: 0.8929 | Difference [1, 12]: −0.08 | Cholesterol-free [2, 7]: 0.7956 | Complete [2, 8]: 1.359 | Difference [2, 13]: 0.56

CCCCCOc1ccccc1/C(=C\SC)n1ccnc1 [Neticonazole (hydrochloride)]
Complete Media [1, 11]: 0.9839 | Difference [1, 14]: 0.45 | Cholesterol-free [2, 15]: 1.192 | Complete ([2]; NCI-H292 cells, complete media): 0.8359 | Difference [2, 16]: −0.36

Cn1nnc2c(C(N)=O)ncn2c1=O [Temozolomide]
Cholesterol-free media + simvastatin (0.04 μM) [1, 10]: 0.984 | Complete Media [1, 11]: 0.8242 | Difference [1, 12]: −0.16 | Cholesterol-free [2, 15]: 1.265 | Complete ([2]; NCI-H292 cells, complete media): 0.9503 | Difference [2, 16]: −0.31

O=C(O)CSCC(=O)NC1CCSC1=O (stereo not shown) [Erdosteine]
Cholesterol-free media + simvastatin (0.04 μM) [1, 17]: 1.196 | Complete Media [1, 18]: 1.238 | Difference [1, 14]: 0.04 | Difference [2, 19]: 0.06 | Cholesterol-free [2, 7]: 1.459 | Complete [2, 8]: 1.516

CCc1c(Cl)c(O)c(Cl)c(O)c1C(=O)O[C@H]1[C@H](O)[C@H](OC)[C@H](OC/C2=C\C=C\C[C@H](O)/C(C)=C/[C@H](CC)[C@@H](O[C@@H]3OC(C)(C)[C@@H](OC(=O)C(C)C)[C@H](O)[C@@H]3O)/C(C)=C/C(C)=C/C[C@@H]([C@@H](C)O)OC2=O)O[C@@H]1C [Fidaxomicin]
Cholesterol-free media + simvastatin (0.04 μM) [1, 20]: 1.494 | Complete Media [1, 21]: 1.227 | Difference [1, 12]: −0.27 | Difference [2, 22]: −0.71 | Cholesterol-free [2, 23]: 1.405 | Complete [2, 24]: 0.6951

N[C@@H](Cc1ccccc1)C(=O)O [L-Phenylalanine]
Cholesterol-free media + simvastatin (0.04 μM) [1, 25]: 0.988 | Complete Media [1, 26]: 0.7918 | Difference [1, 12]: −0.20 | Difference [2, 19]: −0.24 | Cholesterol-free [2, 15]: 1.103 | Complete ([2]; NCI-H292 cells, complete media): 0.8607

Danofloxacin (mesylate)
Cholesterol-free media + simvastatin (0.04 μM) [1, 17]: 0.9788 | Complete Media [1, 18]: 1.081 | Difference [1, 14]: 0.10 | Difference [2, 22]: −0.77 | Cholesterol-free [2, 23]: 1.786 | Complete [2, 24]: 1.013

C=C1[C@H](CO)[C@@H](O)C[C@@H]1n1cnc2c(=O)[nH]c(N)nc21 [Entecavir (monohydrate)]
Cholesterol-free media + simvastatin (0.04 μM) [1, 25]: 1.17 | Complete Media [1, 26]: 0.9716 | Difference [1, 12]: −0.20 | Difference [2, 22]: −0.52 | Cholesterol-free [2, 23]: 1.519 | Complete [2, 24]: 1

CNC[C@H](O)[C@@H](O)[C@H](O)[C@H](O)CO.O=C(O)c1ccc2nc(-c3cc(Cl)cc(Cl)c3)oc2c1 [Tafamidis meglumine]
Cholesterol-free media + simvastatin (0.04 μM) [1, 10]: 0.9551 | Difference [1, 14]: 0.20 | Difference [2, 19]: −0.03 | Cholesterol-free [2, 7]: 0.8398 | Complete [2, 8]: 0.8088

C=C1CC[C@@H]2[C@](C)(COC(=O)CCC(=O)[O-])[C@H](OC(=O)CCC(=O)O)CC[C@@]2(C)[C@@H]1/C=C/C1=CCOC1=O.[K+] [Kalii Dehydrographolidi Succinas]
Cholesterol-free media + simvastatin (0.04 μM) [1, 10]: 0.8904 | Complete Media [1, 11]: 1.183 | Difference [1, 9]: 0.29 | Cholesterol-free [2, 15]: 1.388 | Complete ([2]; NCI-H292 cells, complete media): 1.081 | Difference [2, 27]: −0.31

Potassium guaiacolsulfonate (hemihydrate)
Cholesterol-free media + simvastatin (0.04 μM) [1]: 1.702 | Complete Media [1]: 1.838 | Difference [1]: 0.14 | Cholesterol-free [2]: 1.74 | Complete [2]: 0.9478 | Difference [2]: −0.79

Rupatadine (Fumarate)
Cholesterol-free media + simvastatin (0.04 μM) [1, 10]: 0.9792 | Complete Media [1, 11]: 1.536 | Difference [1, 14]: 0.56 | Difference [2, 19]: −0.23 | Cholesterol-free [2, 15]: 1.308

Camostat (mesylate)
Cholesterol-free media + simvastatin (0.04 μM) [1, 20]: 1.328 | Difference [1, 12]: −0.30 | Cholesterol-free [2, 7]: 0.6104 | Complete [2, 8]: 0.9828 | Difference [2, 13]: 0.37

C1CCC(C(CC2CCCCN2)C2CCCCC2)CC1 (stereo not shown) [Perhexiline maleate]
Cholesterol-free media + simvastatin (0.04 μM) [1, 3]: 0.8717 | Complete Media [1, 4]: 0.811 | Difference [1, 28]: −0.06 | Difference [2, 29]: −0.14 | Cholesterol-free [2, 30]: 1.139 | Complete [2, 11]: 1.003

NC(=O)N1c2ccccc2C=Cc2ccccc21 [Carbamazepine]
Cholesterol-free media + simvastatin (0.04 μM) [1, 25]: 1.226 | Complete Media [1, 26]: 0.9955 | Difference [1, 12]: −0.23 | Cholesterol-free [2, 15]: 1.302 | Complete ([2]; NCI-H292 cells, complete media): 0.9337 | Difference [2, 16]: −0.37

COc1cc2c(cc1OC)[C@H]1C[C@@H](OC(=O)[C@@H](N)C(C)C)[C@H](CC(C)C)CN1CC2 [Valbenazine]
Cholesterol-free media + simvastatin (0.04 μM) [1, 20]: 1.305 | Complete Media [1, 21]: 1.011 | Difference [1, 12]: −0.29 | Difference [2, 29]: −0.16 | Cholesterol-free [2, 30]: 1.298 | Complete [2, 11]: 1.135

CC(C)(C)NCC(O)CSc1nc(-c2ccc(C(N)=O)s2)cs1 (stereo not shown) [Arotinolol]
Cholesterol-free media + simvastatin (0.04 μM) [1, 10]: 1.158 | Complete Media [1, 11]: 1.017 | Difference [1, 12]: −0.14 | Difference [2, 29]: −0.18 | Cholesterol-free [2, 30]: 1.165 | Complete [2, 11]: 0.9888

CC(=O)Oc1ccc(C(c2ccc(OC(C)=O)cc2)c2ccccn2)cc1 [Bisacodyl]
Cholesterol-free media + simvastatin (0.04 μM) [1, 3]: 0.934 | Complete Media [1, 4]: 0.9483 | Difference [1, 28]: 0.01 | Difference [2, 19]: −0.04 | Cholesterol-free [2, 7]: 0.799 | Complete [2, 8]: 0.7553

Cinepazide (Maleate)
Cholesterol-free media + simvastatin (0.04 μM) [1, 10]: 1.132 | Complete Media [1, 11]: 1.001 | Difference [1, 31]: −0.13 | Cholesterol-free [2, 7]: 0.7192 | Complete [2, 8]: 1.265 | Difference [2, 27]: 0.55

C[C@H](NCc1ccc(OCc2cccc(F)c2)cc1)C(N)=O [Safinamide]
Cholesterol-free media + simvastatin (0.04 μM) [1, 3]: 1.059 | Complete Media [1, 4]: 1.012 | Difference [1, 28]: −0.05 | Difference [2, 29]: −0.13 | Cholesterol-free [2, 30]: 1.086 | Complete [2, 11]: 0.9537

NCC1(CC(=O)O)CCCCC1 [Gabapentin]
Cholesterol-free media + simvastatin (0.04 μM) [1, 10]: 1.126 | Complete Media [1, 11]: 1.036 | Difference [1, 31]: −0.09 | Difference [2, 6]: −0.30 | Cholesterol-free [2, 15]: 1.237 | Complete ([2]; NCI-H292 cells, complete media): 0.9357

CCC(C)(C)c1ccc(CC(C)CN2C[C@@H](C)O[C@@H](C)C2)cc1 (stereo partly shown) [Amorolfine (hydrochloride)]
Cholesterol-free media + simvastatin (0.04 μM) [1, 10]: 0.4078 | Complete Media [1, 11]: 1.021 | Difference [1, 14]: 0.61 | Cholesterol-free [2, 15]: 1.233 | Complete ([2]; NCI-H292 cells, complete media): 0.8449 | Difference [2, 16]: −0.39

CCN1CC(CCN2CCOCC2)C(c2ccccc2)(c2ccccc2)C1=O (stereo not shown) [Doxapram (hydrochloride hydrate)]
Cholesterol-free media + simvastatin (0.04 μM) [1, 10]: 0.894 | Complete Media [1, 11]: 1.128 | Difference [1, 14]: 0.23 | Difference [2, 22]: −1.01 | Cholesterol-free [2, 23]: 2.003 | Complete [2, 24]: 0.9924

N#CC[C@H](C1CCCC1)n1cc(-c2ncnc3[nH]ccc23)cn1 [Ruxolitinib]
Cholesterol-free media + simvastatin (0.04 μM) [1, 10]: 0.6455 | Complete Media [1, 11]: 0.5664 | Difference [1, 12]: −0.08 | Difference [2, 19]: −0.01 | Cholesterol-free [2, 7]: 0.6188 | Complete [2, 8]: 0.6101

O=C(O)Cc1ccc(-c2ccccc2)cc1 [Felbinac]
Cholesterol-free media + simvastatin (0.04 μM) [1, 3]: 1.215 | Complete Media [1, 4]: 1.199 | Difference [1, 28]: −0.02 | Cholesterol-free [2, 7]: 0.7335 | Complete [2, 8]: 1.335 | Difference [2, 13]: 0.60

CC1=C(C(=O)Nc2ccccc2)SCCO1 [Carboxin]
Cholesterol-free media + simvastatin (0.04 μM) [1, 3]: 0.9577 | Complete Media [1, 4]: 0.9272 | Difference [1, 5]: −0.03 | Difference [2, 6]: −0.07 | Cholesterol-free [2, 7]: 1.397 | Complete [2, 8]: 1.326

CNC[C@H](O)c1cccc(O)c1 [Phenylephrine (hydrochloride)]
Cholesterol-free media + simvastatin (0.04 μM) [1, 10]: 2.302 | Difference [1, 28]: −1.21 | Difference [2, 22]: −0.61 | Cholesterol-free [2, 23]: 1.371 | Complete [2, 24]: 0.7558

— US20250144067A1, “PERSONALIZED STARVATION THERAPY FOR CANCER” (Faeth Therapeutics, Inc., priority 2021, published 2025)
